Read-outs that look alike come from different tables or passages of the source.

In data set [1] the target is T1, cloned human μ-opioid receptor (Homo sapiens, UniProt P35372).
T1 construct: expressed in transfected cells
The experiment in a line: Inhibition of DAMGO-stimulated [35S]GTPγS binding. The data set is classed as biochemical. (In general: GTPγS is a poorly hydrolysed GTP analogue; its binding reports G protein activation.)

For data set [2], the target named is T2, cloned human δ-opioid receptor (Homo sapiens, UniProt P41143).
T2 construct: expressed in transfected cells
The experiment in a line: Inhibition of DPDPE-stimulated [35S]GTPγS binding. The data set is classed as biochemical.

Data set [3] concerns the target T3, cloned human κ-opioid receptor (Homo sapiens, UniProt P41145).
T3 construct: expressed in transfected cells
The experiment in a line: Inhibition of U69,593-stimulated [35S]GTPγS binding. The data set is classed as biochemical. The settings on record: for Kb: antagonism of U69,593-stimulated [35S]GTPγS binding, cloned human κ receptor, read-out: κ, U69,593 Ke; for δ/κ / μ/κ: ratio of Ke values; for δ/κ: selectivity for κ relative to δ; for μ/κ: selectivity for κ relative to μ.

Where [4] appears, read: antagonism of DAMGO-stimulated [35S]GTPγS binding, cloned human μ receptor, read-out: μ, DAMGO Ke.

T2 sequence (P41143 whole entry): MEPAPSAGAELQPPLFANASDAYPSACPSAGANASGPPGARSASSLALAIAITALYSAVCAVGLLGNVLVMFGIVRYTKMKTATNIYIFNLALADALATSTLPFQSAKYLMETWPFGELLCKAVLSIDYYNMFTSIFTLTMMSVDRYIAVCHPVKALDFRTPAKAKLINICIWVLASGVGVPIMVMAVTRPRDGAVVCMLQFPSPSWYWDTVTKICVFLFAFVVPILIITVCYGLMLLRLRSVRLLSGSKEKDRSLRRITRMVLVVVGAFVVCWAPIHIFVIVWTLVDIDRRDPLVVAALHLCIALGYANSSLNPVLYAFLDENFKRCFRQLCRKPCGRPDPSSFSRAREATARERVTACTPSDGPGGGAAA
T3 sequence (P41145 whole entry): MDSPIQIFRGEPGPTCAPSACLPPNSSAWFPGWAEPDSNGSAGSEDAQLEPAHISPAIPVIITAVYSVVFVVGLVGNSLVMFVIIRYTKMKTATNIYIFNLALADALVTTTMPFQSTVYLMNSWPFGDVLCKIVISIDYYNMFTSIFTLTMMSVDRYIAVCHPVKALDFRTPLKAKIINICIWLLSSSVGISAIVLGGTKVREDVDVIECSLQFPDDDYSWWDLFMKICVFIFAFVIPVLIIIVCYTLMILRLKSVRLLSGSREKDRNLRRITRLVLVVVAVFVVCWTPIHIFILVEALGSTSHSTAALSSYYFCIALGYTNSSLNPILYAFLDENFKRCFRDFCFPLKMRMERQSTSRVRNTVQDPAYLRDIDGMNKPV
T1 sequence (P35372 whole entry): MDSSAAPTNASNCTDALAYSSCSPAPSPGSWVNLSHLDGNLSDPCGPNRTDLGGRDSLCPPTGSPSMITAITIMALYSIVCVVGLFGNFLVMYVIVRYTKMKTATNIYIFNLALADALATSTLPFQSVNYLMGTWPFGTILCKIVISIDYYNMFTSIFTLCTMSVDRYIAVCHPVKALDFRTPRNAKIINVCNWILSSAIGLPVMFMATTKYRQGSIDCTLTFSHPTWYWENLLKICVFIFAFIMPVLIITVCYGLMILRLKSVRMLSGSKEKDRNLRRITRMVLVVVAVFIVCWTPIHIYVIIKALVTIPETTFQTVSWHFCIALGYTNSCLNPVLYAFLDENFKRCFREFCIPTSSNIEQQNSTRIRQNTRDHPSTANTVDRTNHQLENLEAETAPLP

For `COc1cc(C(=O)N[C@H](CN2CCN(c3cccc(O)c3)[C@@H](C)C2)C(C)C)ccc1Oc1ccccc1O.Cl.Cl` [Compound 19m, 4-(2-Hydroxyphenoxy)-N-[(1S)-1-{[(3S)-4-(3-hydroxyphenyl)-3-methylpiperazin-1-yl]methyl}-2-methylpropyl]-3-methoxybenzamide Dihydrochloride], the melting point (as a rule, the temperature, or range, at which the solid turns liquid) lay in the range of 95 to 97 °C. In data set [1] (setting [4]), the Kb came to 74 ± 23 nM. For the same compound, the Kb in data set [2] was 67 ± 47 nM. For the same compound, in data set [3], the Kb worked out at 16.3 ± 2.7 nM, the δ/κ is 4 and the μ/κ is 5.

Consider `COc1cc(C(=O)N[C@H](CN2CCN(c3cccc(O)c3)[C@@H](C)C2)C(C)C)ccc1Oc1cc(C)ccc1O.Cl.Cl` [Compound 19o, 4-(2-Hydroxy-5-methylphenoxy)-N-[(1S)-1-{[(3S)-4-(3-hydroxyphenyl)-3-methylpiperazin-1-yl]methyl}-2-methylpropyl]-3-methoxybenzamide Dihydrochloride], for which the melting point was 100 to 103 °C. Moreover, the Kb in data set [1] turned out to be 10 ± 2.6 nM. Besides, the Kb in data set [2] is 37 ± 13 nM. Further, in data set [3], the Kb is 6.2 ± 2.2 nM, the δ/κ stood at 6 and the μ/κ was 2.

As for `Cc1ccc(O)c(Oc2ccc(C(=O)N[C@H](CN3CCN(c4cccc(O)c4)[C@@H](C)C3)C(C)C)cc2Cl)c1.Cl.Cl` [Compound 19p, 3-Chloro-4-(2-hydroxy-5-methylphenoxy)-N-[(1S)-1-{[(3S)-4-(3-hydroxyphenyl)-3-methylpiperazin-1-yl]methyl}-2-methylpropyl]benzamide Dihydrochloride], the melting point lay within 145 to 148 °C. The Kb in data set [1] (setting [4]) turned out to be 8.2 ± 1.7 nM. Moreover, the Kb in data set [2] (antagonism of DPDPE-stimulated [35S]GTPγS binding, cloned human δ receptor, read-out: δ, DPDPE Ke) worked out at 15 ± 3.6 nM. Further, in data set [3], the Kb is 3 ± 1.1 nM, the δ/κ was determined as 5 and the μ/κ is 3.

These data come from patent publication US9512105B2, “1-substituted 4-arylpiperazine as kappa opioid receptor antagonists” (RESEARCH TRIANGLE INSTITUTE, priority 2011, dated 2016).
